# Measured values reported in patent publication US8835458B2 (Hanmi Science Co., Ltd, priority 2010, dated 2014).
# Structures can show the parent of a compound that is named as a salt.
# Key:
# [1] = Toxicity to normal cells (SRB); format: cell-based, human; settings: human, Hs27 fibroblasts (normal cell line)
# Method: (§1) MDA-MB-231 breast cancer cell lines (ATCC #HTB-26) and BxPC-3 pancreas cancer cell lines (ATCC #CRL 1687), which have been reported to express XIAP, were obtained from ATCC (American type culture collection; Rockville, Md.). MDA-MB-231 cell lines were incubated in L-15 medium supplemented with 10% FBS and 1% penicillin/streptomycin (Gibco BRL) at a T-75 cm^2 growth flask. In addition, BxPC-3 cell lines were incubated in RPMI medium supplemented with 10% FBS and 1% penicillin/streptomycin. For experiments of toxicity to normal cells, fibroblasts Hs27 (ATCC #CRL 1634) and Balb/c3t3 (ATCC #CCL 163) were used. The various cell lines were transferred into 96-well plates at a density of 3,000˜5,000 cells/100 μL, and cultured for 24 hours under conditions of 37° C., 5% CO2, 95% air, and 100% relative humidity (MDA-MB-231 cells were cultured under atmospheric conditions). The cells were treated with 10 μM˜0.1 nM of test compounds, and MDA-MB-231, BxPC-3, and normal cell lines were cultured for 120, 96, and 72 hours, respectively.
# (§2) Cell viabilities of MDA-MB-231 cell lines were measured at an absorbance of 490 nm using CellTiter 96™ AQueous One Solution Cell proliferation Assay (MTS, Promega), and cell viabilities of BxPC-3 and normal cell lines were measured by fixing cells with 10% TCA (trichloroacetic acid), staining with SRB (sulforhodamine B), and measuring at 540 nm. From the values, GI50 values in which test compounds reduce the growth of cancer cells by 50% were calculated. The growth rates of cancer cells were calculated from following Equation 1 or 2. [(Ti−Tz)/(C−Tz)]×100 (for Ti>=Tz) [Equation 1] [(Ti−Tz)/Tz]×100 (for Ti<Tz) [Equation 2] In Equations 1 and 2, Tz refers to a density of untreated cells, which is an absorbance in 0% cell growth groups. C refers to a density of cells cultured by adding only medium, and Ti refers to a density of cells treated with test compounds.
# (§3) GI50 value is the concentration of a test compound when the value of Equation 1 is 50, which indicates the concentration of test compound required to inhibit the cancer cells by 50%. On each measurement, test compounds were compared with a control.
# (§4) The activity value of each compound (GI50 value) was shown in Table 5, and an IAP antagonist was used as a control.
# (§5) In the activity measurement on MDA-MB-231 breast cancer cell lines, the values were represented as “***” for 100 nM or less, “**” for over 100 nM to below 1,000 nM, and “*” for 1,000 nM or more. In the measurement on normal cell lines, Balb/C and Hs27, the values were represented as “+++” for 10,000 nM or more, “++” for over 5,000 nM to below 10,000 nM, and “+” for 5,000 nM or less.
# [2] = test system: MDA-MB-231 breast cancer cell lines; assay: Evaluation of inhibition on cell growth (MTS); format: cell-based; settings: Homo sapiens, MDA-MB-231, 120 hours
# Method: as §1, §2, §3, §4, §5
SMILES,GI50 at 72 h [1] [µM],GI50 [2] [µM]
"CN[C@@H](C)C(=O)N[C@H](C(=O)N1CCC[C@H]1C(=O)Nc1cc2c(Nc3ccc(CN4CCCCC4)cc3)ncnc2cc1OC)C(C)(C)C [Example 104, (S)-1-((S)-3,3-dimethyl-2-((S)-2-(methylamino)propanamido)butanoyl)-N-(7-methoxy-4-((4-(piperidin-1-ylmethyl)phenyl)amino)quinazolin-6-yl)pyrrolidine-2-carboxamide hydrochloride]",> 10,≤ 0.1
"CN[C@@H](C)C(=O)N[C@H](C(=O)N1CCC[C@H]1C(=O)Nc1cc2c(NC(=O)Nc3ccccc3F)ncnc2cc1OC)C(C)(C)C [Example 89, (S)-1-((S)-3,3-dimethyl-2-((S)-2-(methylamino)propanamido)butanoyl)-N-(4-(3-(2-fluorophenyl)ureido)-7-methoxyquinazolin-6-yl)pyrrolidine-2-carboxamide hydrochloride]",> 10,≤ 0.1
"CCCN1CCN(c2ccc(Nc3ncnc4cc(OC)c(NC(=O)[C@@H]5CCCN5C(=O)[C@@H](NC(=O)[C@H](C)NC)C(C)(C)C)cc34)cc2Cl)CC1 [Example 98, (S)—N-(4-((3-chloro-4-(4-propyl-1-yl)phenyl)amino)-7-methoxyquinazolin-6-yl)-1-((S)-3,3-dimethyl-2-((S)-2-(methylamino)propanamido)butanoyl)pyrrolidine-2-carboxamide hydrochloride]",> 10,≤ 0.1
"CN[C@@H](C)C(=O)N[C@H](C(=O)N1CCC[C@H]1C(=O)Nc1cc2c(Nc3ccc(N4CCN(C(C)C)CC4)c(Cl)c3)ncnc2cc1OC)C(C)(C)C [Example 97, (S)—N-(4-((3-chloro-4-(4-isopropylpiperazin-1-yl)phenyl)amino)-7-methoxyquinazolin-6-yl)-1-((S)-3,3-dimethyl-2-((S)-2-(methylamino)propanamido)butanoyl)pyrrolidine-2-carboxamide hydrochloride]",> 10,≤ 0.1
"C#CCOc1ccc(Nc2ncnc3cc(OC)c(NC(=O)[C@@H]4CCCN4C(=O)[C@@H](NC(=O)[C@H](C)NC)C(C)(C)C)cc23)cc1 [Example 91, (S)-1-((S)-3,3-dimethyl-2-((S)-2-(methylamino)propanamide)butanoyl)-N-(7-methoxy-4-((4-(2-propyn-1-yloxy)phenyl)amino)quinazolin-6-yl)pyrrolidine-2-carboxamide hydrochloride]",> 10,≤ 0.1
"CN[C@@H](C)C(=O)N[C@H](C(=O)N1CCC[C@H]1C(=O)Nc1cc2c(Nc3ccc(N4CCN(CC5CC5)CC4)c(Cl)c3)ncnc2cc1OC)C(C)(C)C [Example 92, (S)—N-(4-((3-chloro-4-(4-(cyclopropylmethyl)piperazin-1-yl)phenyl)amino)-7-methoxyquinazolin-6-yl)-1-((S)-3,3-dimethyl-2-((S)-2-(methylamino)propanamido)butanoyl)pyrrolidine-2-carboxamide]",> 10,≤ 0.1
"CN[C@@H](C)C(=O)N[C@H](C(=O)N1CCC[C@H]1C(=O)Nc1cc2c(Nc3ccc(N4CCN(C)CC4)c(F)c3)ncnc2cc1OC)C(C)(C)C [Example 112, (S)-1-((S)-3,3-dimethyl-2-((S)-2-(methylamino)propanamido)butanoyl)-N-(4-((3-fluoro-4-(4-methylpiperazin-1-yl)phenyl)amino)-7-methoxyquinazolin-6-yl)pyrrolidine-2-carboxamide]",> 10,≤ 0.1
"CN[C@@H](C)C(=O)N[C@H](C(=O)N1CCC[C@H]1C(=O)Nc1cc2c(Nc3ccc(Br)c(Cl)c3F)ncnc2cc1OC)C(C)(C)C [Example 87, (S)—N-(4-((4-bromo-3-chloro-2-fluorophenyl)amino)-7-methoxyquinazolin-6-yl)-1-((S)-3,3-dimethyl-2-((S)-2-(methylamino)propanamido)butanoyl)pyrrolidine-2-carboxamide hydrochloride]",> 10,≤ 0.1
